Experimental data taken from US20240239766A1, “3-AMINO PIPERIDYL SODIUM CHANNEL INHIBITORS” (Genentech, Inc., priority 2021, published 2024).
Structures can show the parent of a compound that is named as a salt.

molecular target: hNav1.7 (Homo sapiens (Human), UniProt Q15858); assay: Patch voltage clamp electrophysiology assay (EP), Syncropatch 384PE, CHO cells expressing Nav1.7; type: cell-based; settings: holding potential −50 mV; 7.5 min compound incubation; read-out: EP SP hNav1.7 EVO (IC50)
Sequence (Q15858 other isoform, or with tags, fused parts or gaps): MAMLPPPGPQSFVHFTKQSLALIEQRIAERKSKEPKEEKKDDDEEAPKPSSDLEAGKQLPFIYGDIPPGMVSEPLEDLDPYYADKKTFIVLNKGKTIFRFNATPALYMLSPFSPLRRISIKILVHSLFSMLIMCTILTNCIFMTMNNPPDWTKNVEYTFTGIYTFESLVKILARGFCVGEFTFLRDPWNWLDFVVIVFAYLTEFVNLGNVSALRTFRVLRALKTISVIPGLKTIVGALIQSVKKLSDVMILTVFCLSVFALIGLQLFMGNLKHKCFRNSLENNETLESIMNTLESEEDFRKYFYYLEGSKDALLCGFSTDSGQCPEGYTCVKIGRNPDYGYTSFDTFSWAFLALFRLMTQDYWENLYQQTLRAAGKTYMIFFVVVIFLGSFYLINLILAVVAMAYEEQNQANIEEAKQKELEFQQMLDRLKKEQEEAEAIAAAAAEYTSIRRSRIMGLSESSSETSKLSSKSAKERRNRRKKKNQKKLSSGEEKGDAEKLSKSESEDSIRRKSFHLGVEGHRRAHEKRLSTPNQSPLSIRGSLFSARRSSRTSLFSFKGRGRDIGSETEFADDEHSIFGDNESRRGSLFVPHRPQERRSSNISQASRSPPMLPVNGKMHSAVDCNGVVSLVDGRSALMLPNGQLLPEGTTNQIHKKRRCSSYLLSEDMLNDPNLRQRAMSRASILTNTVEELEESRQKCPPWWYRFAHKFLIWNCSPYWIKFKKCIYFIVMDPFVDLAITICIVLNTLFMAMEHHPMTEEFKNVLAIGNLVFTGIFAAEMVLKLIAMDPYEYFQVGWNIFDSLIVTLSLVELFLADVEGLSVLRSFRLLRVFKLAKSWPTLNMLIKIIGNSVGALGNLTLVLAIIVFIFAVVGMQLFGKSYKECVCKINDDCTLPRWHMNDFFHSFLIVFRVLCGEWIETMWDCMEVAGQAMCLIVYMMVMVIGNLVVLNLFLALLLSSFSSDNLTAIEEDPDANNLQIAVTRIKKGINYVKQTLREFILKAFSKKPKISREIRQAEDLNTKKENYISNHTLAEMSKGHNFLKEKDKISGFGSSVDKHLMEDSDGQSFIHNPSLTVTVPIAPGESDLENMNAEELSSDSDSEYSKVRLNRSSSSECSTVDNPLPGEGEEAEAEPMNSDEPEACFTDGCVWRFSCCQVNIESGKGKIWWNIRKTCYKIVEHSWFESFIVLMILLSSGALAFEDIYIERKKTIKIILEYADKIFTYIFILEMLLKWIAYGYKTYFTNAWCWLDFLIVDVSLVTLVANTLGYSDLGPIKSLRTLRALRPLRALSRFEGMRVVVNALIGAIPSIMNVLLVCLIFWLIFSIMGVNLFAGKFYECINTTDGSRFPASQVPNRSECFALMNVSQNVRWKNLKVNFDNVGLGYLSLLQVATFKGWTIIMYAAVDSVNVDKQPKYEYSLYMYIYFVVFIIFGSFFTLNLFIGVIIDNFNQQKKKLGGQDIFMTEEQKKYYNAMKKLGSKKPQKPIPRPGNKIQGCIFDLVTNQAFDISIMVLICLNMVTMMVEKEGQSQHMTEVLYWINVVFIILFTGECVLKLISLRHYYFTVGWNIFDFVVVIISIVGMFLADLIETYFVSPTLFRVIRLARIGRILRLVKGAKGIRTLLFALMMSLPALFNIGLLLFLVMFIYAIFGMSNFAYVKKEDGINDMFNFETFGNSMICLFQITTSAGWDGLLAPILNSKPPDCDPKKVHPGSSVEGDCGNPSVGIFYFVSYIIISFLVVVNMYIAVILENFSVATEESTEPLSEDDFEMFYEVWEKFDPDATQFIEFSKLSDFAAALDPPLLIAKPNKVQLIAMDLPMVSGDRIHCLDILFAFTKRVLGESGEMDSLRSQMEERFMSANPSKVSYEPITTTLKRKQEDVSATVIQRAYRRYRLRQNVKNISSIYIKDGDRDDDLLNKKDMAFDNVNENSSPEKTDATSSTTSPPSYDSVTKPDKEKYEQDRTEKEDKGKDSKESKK
Excerpt: Example 101c: Electrophysiological Assay (EP) (In Vitro Assay)
Patch voltage clamp electrophysiology allows for the direct measurement and quantification of block of voltage-gated sodium channels (NaV's), and allows the determination of the time- and voltage-dependence of block which has been interpreted as differential binding to the resting, open, and inactivated states of the sodium channel (Hille, B., Journal of General Physiology (1977), 69: 497-515).
The following voltage clamp electrophysiology studies are performed on representative compounds using cells heterologously expressing Nav1.7 or Nav1.5 channels. cDNAsfor Nav1.7 (NM_002977) and Nav1.5 (AC137587) are stably expressed in Chinese Hamstr Ovary (CHO) cells and CHL (Chinese Hamster Lung) cells respectively. Sodium currents are measured in the whole-cell configuration using Syncropatch 384PE (Nanlon Technologies, Germany). 1NPC®-384 chips with custom medium resistance and single hole mode are used. Internal solution consists of (in mM): […], 10 CsCl, 20 EGTA, and 10 Hepes (pH adjusted to 7.2); and external solution contains (in mM): 60 NMDG, 80 NaCl, 4 KCl, 1 MgCl2, 2 CaCl2), 2 D-Glucose monohydrate, 10 Hepes (pH adjusted to 7.4 with NaOH).
After system flushing, testing compounds are dissolved in external solution containing 0.1% Pluronic F-127. The chip is moved into the measuring head and the instrument primes the chip with external and internal solutions. 10 μl cells are added to the chip from a cell hotel, and a negative pressure of −50 mBar is applied to form a seal. Following treatment with seal enhancer solution and wash-off with external solution, negative pressure of −250 mbar is applied for 1 second to achieve the whole-cell configuration, followed by three washing steps in external solution. 20 μl of compounds is added to 40 μl in each well (1:3 dilution of compounds), and after mixing, 20 μl is removed so the volume is retained at 40 ul. After approximately 13 minutes recordings, 20 μl/well of 2 uM TTX, or 333 uM Tetracaine (for Nav1.5) is added to achieve full block.
For voltage protocol, an holding potential of −50 mV is applied during the whole experiment. A depolarizing step is applied to −10 mV for 10 ms, followed by a hyperpolarization step to −150 mV for 20 ms to allow channel recovery from inactivation. A second depolarizing step is applied from −150 mV to −10 mV for 10 ms, where currents are measured to derive blocking effects of compounds. Inhibition is determined based on 7.5 min of compound incubation.

Row | Structure (SMILES) | IC50 [µM]
1 | CN(C)[C@]1(CCc2cccc(C(F)(F)F)c2)CCCN(c2ccc(S(=O)(=O)Nc3ccncn3)c(F)c2)C1 (single isomer, unassigned) [Example 1] | 0.00688
2 | CN(C)[C@@]1(CCc2cccc(C(F)(F)F)c2)CCCN(c2ccc(S(=O)(=O)Nc3ccncn3)c(F)c2)C1 (single isomer, unassigned) [Example 2, formate] | 0.601
3 | CN[C@@]1(CCc2cccc(C(F)(F)F)c2)CCCN(c2ccc(S(=O)(=O)Nc3ccncn3)c(F)c2)C1 (single isomer, unassigned) [Example 4] | 0.638
4 | CN(C)[C@@]1(CCc2ccccc2)CCCN(c2ccc(S(=O)(=O)Nc3ccncn3)c(F)c2)C1 (single isomer, unassigned) [Example 5] | 10
5 | CN(C)[C@]1(CCc2ccccc2)CCCN(c2ccc(S(=O)(=O)Nc3ccncn3)c(F)c2)C1 (single isomer, unassigned) [Example 6] | 0.0489
6 | CN(C)[C@@]1(CCc2ccc(C(F)(F)F)cc2)CCCN(c2ccc(S(=O)(=O)Nc3ccncn3)c(F)c2)C1 (single isomer, unassigned) [Example 7] | 0.0124
7 | CN(C)[C@]1(CCc2ccc(C(F)(F)F)cc2)CCCN(c2ccc(S(=O)(=O)Nc3ccncn3)c(F)c2)C1 (single isomer, unassigned) [Example 8] | 2.07
8 | CN(C)[C@@]1(CCc2cccc(C(F)(F)F)c2)CCCN(c2cc(F)c(S(=O)(=O)Nc3ccncn3)cc2Cl)C1 (single isomer, unassigned) [Example 11] | 0.742
9 | CN(C)[C@]1(CCc2cccc(C(F)(F)F)c2)CCCN(c2cc(F)c(S(=O)(=O)Nc3ccncn3)cc2Cl)C1 (single isomer, unassigned) [Example 12] | 0.0515
10 | CN(C)[C@@]1(CCc2cccc(C(F)(F)F)c2)CCCN(c2ccc(S(=O)(=O)Nc3nccs3)c(F)c2)C1 (single isomer, unassigned) [Example 13] | 0.00153
11 | CN(C)[C@]1(CCc2cccc(C(F)(F)F)c2)CCCN(c2ccc(S(=O)(=O)Nc3nccs3)c(F)c2)C1 (single isomer, unassigned) [Example 14] | 0.0587
12 | CN(C)[C@@]1(CCc2cccc(C(F)(F)F)c2)CCCN(c2cc(F)c(S(=O)(=O)Nc3ccncn3)c(F)c2)C1 (single isomer, unassigned) [Example 15] | 0.288
13 | CN(C)[C@]1(CCc2cccc(C(F)(F)F)c2)CCCN(c2cc(F)c(S(=O)(=O)Nc3ccncn3)c(F)c2)C1 (single isomer, unassigned) [Example 16] | 0.00141
14 | CN(C)[C@@]1(CCc2cccc(C(F)(F)F)c2)CCCN(c2cc(F)c(S(=O)(=O)Nc3ccncn3)c(Cl)c2)C1 (single isomer, unassigned) [Example 17] | 0.314
15 | CN(C)[C@]1(CCc2cccc(C(F)(F)F)c2)CCCN(c2cc(F)c(S(=O)(=O)Nc3ccncn3)c(Cl)c2)C1 (single isomer, unassigned) [Example 18] | 0.00183
16 | CN(C)[C@@]1(CCc2ccc(Cl)c(C(F)(F)F)c2)CCCN(c2ccc(S(=O)(=O)Nc3ccncn3)c(F)c2)C1 (single isomer, unassigned) [Example 19] | 0.0604
17 | CN(C)[C@]1(CCc2ccc(Cl)c(C(F)(F)F)c2)CCCN(c2ccc(S(=O)(=O)Nc3ccncn3)c(F)c2)C1 (single isomer, unassigned) [Example 20, formate] | 0.00274
18 | O=S(=O)(Nc1ccncn1)c1ccc(N2CCC[C@](CCc3cccc(C(F)(F)F)c3)(N3CCC3)C2)cc1F (single isomer, unassigned) [Example 21] | 3.18
19 | O=S(=O)(Nc1ccncn1)c1ccc(N2CCC[C@@](CCc3cccc(C(F)(F)F)c3)(N3CCC3)C2)cc1F (single isomer, unassigned) [Example 22] | 0.0844
20 | O=S(=O)(Nc1ccncn1)c1ccc(N2CCC[C@](CCc3cccc(C(F)(F)F)c3)(N3CCCC3)C2)cc1F (single isomer, unassigned) [Example 23] | 0.00862
21 | O=S(=O)(Nc1ccncn1)c1ccc(N2CCC[C@@](CCc3cccc(C(F)(F)F)c3)(N3CCCC3)C2)cc1F (single isomer, unassigned) [Example 24] | 0.439

Row | Structure (SMILES) | IC50 [µM]
22 | O=S(=O)(Nc1ccncn1)c1ccc(N2CCC[C@](CCc3cccc(C(F)(F)F)c3)(N3CCCCC3)C2)cc1F (single isomer, unassigned) [Example 25, formate] | 0.312
23 | O=S(=O)(Nc1ccncn1)c1ccc(N2CCC[C@@](CCc3cccc(C(F)(F)F)c3)(N3CCCCC3)C2)cc1F (single isomer, unassigned) [Example 26, formate] | 0.0195
24 | CN(C)CCN(C)[C@@]1(CCc2cccc(C(F)(F)F)c2)CCCN(c2ccc(S(=O)(=O)Nc3ccncn3)c(F)c2)C1 (single isomer, unassigned) [Example 27, formate] | 2.15
25 | CN(C)CCN(C)[C@]1(CCc2cccc(C(F)(F)F)c2)CCCN(c2ccc(S(=O)(=O)Nc3ccncn3)c(F)c2)C1 (single isomer, unassigned) [Example 28, formate] | 0.00808
26 | CN1CC(CN(C)[C@@]2(CCc3cccc(C(F)(F)F)c3)CCCN(c3ccc(S(=O)(=O)Nc4ccncn4)c(F)c3)C2)C1 (single isomer, unassigned) [Example 29] | 0.00266
27 | CN1CC(CN(C)[C@]2(CCc3cccc(C(F)(F)F)c3)CCCN(c3ccc(S(=O)(=O)Nc4ccncn4)c(F)c3)C2)C1 (single isomer, unassigned) [Example 30, formate] | 0.0135
28 | CN(C)[C@@]1(CCc2cc(C(F)(F)F)ccc2Cl)CCCN(c2cc(F)c(S(=O)(=O)Nc3ccncn3)c(F)c2)C1 (single isomer, unassigned) [Example 32] | 0.425
29 | CN(C)[C@]1(CCc2cc(C(F)(F)F)ccc2Cl)CCCN(c2cc(F)c(S(=O)(=O)Nc3ccncn3)c(F)c2)C1 (single isomer, unassigned) [Example 33, formate] | 0.00189
30 | CN1CC(N(C)[C@@]2(CCc3cccc(C(F)(F)F)c3)CCCN(c3ccc(S(=O)(=O)Nc4ccncn4)c(F)c3)C2)C1 (single isomer, unassigned) [Example 34] | 0.00182
31 | CN1CCC(N(C)[C@@]2(CCc3cccc(C(F)(F)F)c3)CCCN(c3ccc(S(=O)(=O)Nc4ccncn4)c(F)c3)C2)CC1 (single isomer, unassigned) [Example 36] | 2.69
32 | CN1CCC(N(C)[C@]2(CCc3cccc(C(F)(F)F)c3)CCCN(c3ccc(S(=O)(=O)Nc4ccncn4)c(F)c3)C2)CC1 (single isomer, unassigned) [Example 37, formate] | 0.00722
33 | CN(C)[C@@]1(CCc2cccc(C(F)(F)F)c2)CCCN(c2cc(F)c(S(=O)(=O)Nc3ccncn3)cc2F)C1 (single isomer, unassigned) [Example 38] | 0.0288
34 | CN(C)[C@]1(CCc2cccc(C(F)(F)F)c2)CCCN(c2cc(F)c(S(=O)(=O)Nc3ccncn3)cc2F)C1 (single isomer, unassigned) [Example 39] | 9.11
35 | CN(C)[C@]1(CCc2cccc(C(F)(F)F)c2Cl)CCCN(c2cc(F)c(S(=O)(=O)Nc3ccncn3)c(F)c2)C1 (single isomer, unassigned) [Example 41] | 0.00107
36 | CN(C)[C@@]1(CCc2cc(Cl)cc(C(F)(F)F)c2)CCCN(c2cc(F)c(S(=O)(=O)Nc3ccncn3)c(F)c2)C1 (single isomer, unassigned) [Example 42] | 0.052
37 | CN1CC[C@@H](N(C)[C@@]2(CCc3cccc(C(F)(F)F)c3)CCCN(c3cc(F)c(S(=O)(=O)Nc4ccncn4)c(F)c3)C2)C1 (single isomer, unassigned) [Example 44] | 0.195
38 | CN1CC[C@H](N(C)[C@@]2(CCc3cccc(C(F)(F)F)c3)CCCN(c3cc(F)c(S(=O)(=O)Nc4ccncn4)c(F)c3)C2)C1 (single isomer, unassigned) [Example 45] | 0.00169
39 | CN(C)[C@@]1(CCc2ccc(C(F)(F)F)c(Cl)c2)CCCN(c2cc(F)c(S(=O)(=O)Nc3ccncn3)c(F)c2)C1 (single isomer, unassigned) [Example 50] | 0.504
40 | CN(C)[C@]1(CCc2ccc(C(F)(F)F)c(Cl)c2)CCCN(c2cc(F)c(S(=O)(=O)Nc3ccncn3)c(F)c2)C1 (single isomer, unassigned) [Example 51] | 0.00103
41 | CN(C)[C@@]1(CCc2cccc(C(F)(F)F)c2)CCCN(c2cc(F)c(S(=O)(=O)Nc3ncccn3)c(F)c2)C1 (single isomer, unassigned) [Example 52] | 0.569
42 | CN(C)[C@]1(CCc2cccc(C(F)(F)F)c2)CCCN(c2cc(F)c(S(=O)(=O)Nc3ncccn3)c(F)c2)C1 (single isomer, unassigned) [Example 53] | 0.00923
